This is an account of results in patent US10980889B1 (Revolution Medicines, Inc., priority 2018, dated 2021).

SMILES strings stand for the structures. Where only a bound is given, the exact number is not on record here.

One experiment deals with P-P70S6K (T389). The experiment can be described thus: Cell based AlphaLISA assay, inhibition of P-P70S6K (T389) in MDA-MB-468 cells (mTORC1 substrate). The note with it: AlphaLisa, two to four hours at 37° C.; for IC50: Homo sapiens, 4 h, read-out: pIC50 for Inhibition of mTORC1 and mTORC2 Substrate Phosphorylation p-P70S6K-(T389) (converted). In short, it runs like this: (§1)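 In MDA-MB-468 cells, phosphorylation of 4EBP1 (Thr37/46), P70S6K (Thr389) and AKT (Ser473) was measured after incubation with inhibitor by AlphaLISA SureFire Ultra on cell lysates, in duplicate. IC50 values came from control-normalized concentration-response regression.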
Background: In Alpha technology, singlet oxygen from a donor bead excites a nearby acceptor bead.

The test system of another experiment is P-4E-BP1 (T37/46). The experiment can be described thus: Cell based AlphaLISA assay, inhibition of P-4E-BP1 (T37/46) in MDA-MB-468 cells (mTORC1 substrate). The note with it: AlphaLisa, two to four hours at 37° C.; for IC50: Homo sapiens, 4 h, read-out: pIC50 for Inhibition of mTORC1 and mTORC2 Substrate Phosphorylation P-4E-BP1-(T37/46) (converted). In short, it runs like this: as §1

Another experiment deals with P-Akt (S473). Briefly: Cell based AlphaLISA assay, inhibition of P-Akt (S473) in MDA-MB-468 cells (mTORC2 substrate). The note with it: AlphaLisa, two to four hours at 37° C.; for IC50: Homo sapiens, 4 h, read-out: pIC50 for Inhibition of mTORC1 and mTORC2 Substrate Phosphorylation p-AKT1/2/3-(S473) (converted). In short, it runs like this:
as §1

For the compound `CO[C@H]1C[C@@H]2CC[C@@H](C)[C@@](O)(O2)C(=O)C(=O)N2CCCC[C@H]2C(=O)O[C@H]([C@H](C)C[C@@H]2CC[C@@H](OC(=O)NCc3cnc(N4CCN(CCOCCOCCOCCOCCC(=O)NCCCCn5nc(-c6ccc7oc(N)nc7c6)c6c(N)ncnc65)CC4)nc3)[C@H](OC)C2)C[C@@H](OC)[C@H](C)/C=C(\C)[C@@H](O)[C@@H](OC)C(=O)[C@H](C)C[C@H](C)/C=C/C=C/C=C/1C` [Example 90], the IC50 with P-P70S6K (T389) is less than 1 nM; with P-4E-BP1 (T37/46), greater than 1000 nM; with P-Akt (S473) it was greater than 1000 nM.
Take `CO[C@H]1C[C@@H]2CC[C@@H](C)[C@@](O)(O2)C(=O)C(=O)N2CCCC[C@H]2C(=O)O[C@H]([C@H](C)C[C@@H]2CC[C@@H](OC(=O)NCc3cnc(N4CCN(C(=O)CCOCCN5CCN(c6ncc(C(=O)N7CCc8cc(Cn9nc(-c%10ccc%11oc(N)nc%11c%10)c%10c(N)ncnc%109)ccc8C7)cn6)CC5)CC4)nc3)[C@H](OC)C2)CC(=O)[C@H](C)/C=C(\C)[C@@H](O)[C@@H](OC)C(=O)[C@H](C)C[C@H](C)/C=C/C=C/C=C/1C` [Example 109]: the IC50 with P-P70S6K (T389) was 10 to 1000 nM; in the experiment on P-4E-BP1 (T37/46), greater than 1000 nM; with P-Akt (S473), greater than 1000 nM.
`CO[C@H]1C[C@@H]2CC[C@@H](C)[C@@](O)(O2)C(=O)C(=O)N2CCCC[C@H]2C(=O)O[C@H]([C@H](C)C[C@@H]2CC[C@@H](OC(=O)N3CCc4nc(N5CCN(CCOCCN6CCN(c7ncc(C(=O)N8CCc9cc(Cn%10nc(-c%11ccc%12[nH]ccc%12c%11)c%11c(N)ncnc%11%10)ccc9C8)cn7)CC6)CC5)ncc4C3)[C@H](OC)C2)CC(=O)[C@H](C)/C=C(\C)[C@@H](O)[C@@H](OC)C(=O)[C@H](C)C[C@H](C)/C=C/C=C/C=C/1C` [Example 131]: the results for the IC50 in the experiment with P-P70S6K (T389), in the experiment on P-4E-BP1 (T37/46) and with P-Akt (S473) were less than 1 nM, less than 3.16 nM and 3.16 to 31.6 nM, respectively.
For `CO[C@H]1C[C@@H]2CC[C@@H](C)[C@@](O)(O2)C(=O)C(=O)N2CCCC[C@H]2C(=O)O[C@H]([C@H](C)C[C@@H]2CC[C@@H](OC(=S)NCCOCCOCCOCCOCCOCCOCCOCCOCCC(=O)N3CCc4cc(Cn5nc(-c6ccc7oc(N)nc7c6)c6c(N)ncnc65)ccc4C3)[C@H](OC)C2)C[C@@H](OC)[C@H](C)/C=C(\C)[C@@H](O)[C@@H](OC)C(=O)[C@H](C)C[C@H](C)/C=C/C=C/C=C/1C` [Example 34] the same measures were less than 1 nM, greater than 1000 nM and greater than 1000 nM.
For `CO[C@H]1C[C@@H]2CC[C@@H](C)[C@@](O)(O2)C(=O)C(=O)N2CCCC[C@H]2C(=O)O[C@H]([C@H](C)C[C@@H]2CC[C@@H](OC(=O)N3CCc4nc(N5CCN(C(=O)CCOCCN6CCN(c7ncc(C(=O)N8CCc9cc(Cn%10nc(-c%11ccc%12oc(N)nc%12c%11)c%11c(N)ncnc%11%10)ccc9C8)cn7)CC6)CC5)ncc4C3)[C@H](OC)C2)C[C@@H](OC)[C@H](C)/C=C(\C)[C@@H](O)[C@@H](OC)C(=O)[C@H](C)C[C@H](C)/C=C/C=C/C=C/1C` [Example 117] the same measures were less than 1 nM, less than 3.16 nM and 3.16 to 31.6 nM.
Consider `CO[C@H]1C[C@@H]2CC[C@@H](C)[C@@](O)(O2)C(=O)C(=O)N2CCCC[C@H]2C(=O)O[C@H]([C@H](C)C[C@@H]2CC[C@@H](OC(=S)NCCOCCOCCOCCOCCOCCOCCOCCOCCC(=O)N3CCc4cc(Cn5nc(-c6ccc7oc(N)nc7c6)c6c(N)ncnc65)ccc4C3)[C@H](OC)C2)C[C@@H](O)[C@H](C)/C=C(\C)[C@@H](O)[C@@H](OC)C(=O)[C@H](C)C[C@H](C)/C=C/C=C/C=C/1C` [Example 33], for which the IC50 was less than 1 nM with P-P70S6K (T389), less than 3.16 nM in the experiment on P-4E-BP1 (T37/46) and greater than 1000 nM in the experiment on P-Akt (S473).
In the case of `CO[C@H]1C[C@@H]2CC[C@@H](C)[C@@](O)(O2)C(=O)C(=O)N2CCCC[C@H]2C(=O)O[C@H]([C@H](C)C[C@@H]2CC[C@@H](OC(=O)NCCOCCOCCOCCOCCOCCOCCOCCOCCC(=O)N3CCc4cc(Cn5nc(-c6ccc7oc(N)nc7c6)c6c(N)ncnc65)ccc4C3)[C@H](OC)C2)C[C@H](N=[N+]=[N-])[C@H](C)/C=C(\C)[C@@H](O)[C@@H](OC)C(=O)[C@H](C)C[C@H](C)/C=C/C=C/C=C/1C` [Example 30], the figures for the IC50 with P-P70S6K (T389), with P-4E-BP1 (T37/46) and in the experiment with P-Akt (S473) were less than 1 nM, less than 3.16 nM and 3.16 to 31.6 nM, respectively.
Taken in the same sequence, the figures for `CO[C@H]1C[C@@H]2CC[C@@H](C)[C@@](O)(O2)C(=O)C(=O)N2CCCC[C@H]2C(=O)O[C@H]([C@H](C)C[C@@H]2CC[C@@H](OC(=O)NCc3cnc(N4CCN(c5ncc(C(=O)N6CCN(c7ncc(C(=O)N8CCc9cc(Cn%10nc(-c%11ccc%12oc(N)nc%12c%11)c%11c(N)ncnc%11%10)ccc9C8)cn7)CC6)cn5)CC4)nc3)[C@H](OC)C2)CC(=O)[C@H](C)/C=C(\C)[C@@H](O)[C@@H](OC)C(=O)[C@H](C)C[C@H](C)/C=C/C=C/C=C/1C` [Example 139] were less than 1 nM, less than 3.16 nM and 31.6 to 1000 nM.
`CO[C@H]1C[C@@H]2CC[C@@H](C)[C@@](O)(O2)C(=O)C(=O)N2CCCC[C@H]2C(=O)O[C@H]([C@H](C)C[C@@H]2CC[C@@H](OC(=O)NCc3cnc(N4CCN(c5ncc(C(=O)NCCOCCOCCOCCOCCC(=O)N6CCc7cc(Cn8nc(-c9cnc%10[nH]ccc%10c9)c9c(N)ncnc98)ccc7C6)c(N)n5)CC4)nc3)[C@H](OC)C2)CC(=O)[C@H](C)/C=C(\C)[C@@H](O)[C@@H](OC)C(=O)[C@H](C)C[C@H](C)/C=C/C=C/C=C/1C` [Example 108]: in the experiment on P-P70S6K (T389), the “pIC50 for Inhibition of mTORC1 and mTORC2 Substrate Phosphorylation p-P70S6K-(T389)” value is “++ (9 > pIC50 ≥ 8)”. Besides, the “pIC50 for Inhibition of mTORC1 and mTORC2 Substrate Phosphorylation P-4E-BP1-(T37/46)” value in the experiment with P-4E-BP1 (T37/46) was “− (<6)”. In the experiment with P-Akt (S473), the “pIC50 for Inhibition of mTORC1 and mTORC2 Substrate Phosphorylation p-AKT1/2/3-(S473)” value is “− (<6)”.
As to `CO[C@H]1C[C@@H]2CC[C@@H](C)[C@@](O)(O2)C(=O)C(=O)N2CCCC[C@H]2C(=O)O[C@H]([C@H](C)C[C@@H]2CC[C@@H](OC(=O)N3CCC(N)(C(=O)NCCOCCOCCOCCOCCOCCOCCC(=O)N4CCc5cc(Cn6nc(-c7ccc8oc(N)nc8c7)c7c(N)ncnc76)ccc5C4)CC3)[C@H](OC)C2)C[C@@H](O)[C@H](C)/C=C(\C)[C@@H](O)[C@@H](OC)C(=O)[C@H](C)C[C@H](C)/C=C/C=C/C=C/1C` [Example 101], the IC50 in the experiment with P-P70S6K (T389) was less than 1 nM; with P-4E-BP1 (T37/46) it was less than 3.16 nM; in the experiment on P-Akt (S473) it was 3.16 to 31.6 nM.
Taken in the same sequence, the figures for `CO[C@H]1C[C@@H]2CC[C@@H](C)[C@@](O)(O2)C(=O)C(=O)N2CCCC[C@H]2C(=O)O[C@H]([C@H](C)C[C@@H]2CC[C@@H](OC(=O)NCc3cnc(N4CCN(C(=O)CCOCCN5CCN(c6ncc(C(=O)NCCS(=O)(=O)c7ccc(C(=O)N8CCOc9ccc(-c%10ccc(N)nc%10)cc9C8)c(C)c7F)cn6)CC5)CC4)nc3)[C@H](OC)C2)C[C@@H](OC)[C@H](C)/C=C(\C)[C@@H](O)[C@@H](OC)C(=O)[C@H](C)C[C@H](C)/C=C/C=C/C=C/1C` [Example 123] were less than 1 nM, less than 3.16 nM and 31.6 to 1000 nM.
On to `CO[C@H]1C[C@@H]2CC[C@@H](C)[C@@](O)(O2)C(=O)C(=O)N2CCCC[C@H]2C(=O)O[C@H]([C@H](C)C[C@@H]2CC[C@@H](OC(=O)N3CCc4nc(N5CCN(c6ncc(C(=O)N7CCN(c8ncc(C(=O)N9CCc%10cc(Cn%11nc(-c%12cnc%13oc(N)nc%13c%12)c%12c(N)ncnc%12%11)ccc%10C9)cn8)CC7)cn6)CC5)ncc4C3)[C@H](OC)C2)CC(=O)[C@H](C)/C=C(\C)[C@@H](O)[C@@H](OC)C(=O)[C@H](C)C[C@H](C)/C=C/C=C/C=C/1C` [Example 62], for which, in the experiment on P-P70S6K (T389), the “pIC50 for Inhibition of mTORC1 and mTORC2 Substrate Phosphorylation p-P70S6K-(T389)” value was “++ (9 > pIC50 ≥ 8)”. In addition, in the experiment with P-4E-BP1 (T37/46), the “pIC50 for Inhibition of mTORC1 and mTORC2 Substrate Phosphorylation P-4E-BP1-(T37/46)” value was “− (<6)”. In addition, the “pIC50 for Inhibition of mTORC1 and mTORC2 Substrate Phosphorylation p-AKT1/2/3-(S473)” value in the experiment on P-Akt (S473) is recorded as “− (<6)”.
For the compound `CO[C@H]1C[C@@H]2CC[C@@H](C)[C@@](O)(O2)C(=O)C(=O)N2CCCC[C@H]2C(=O)O[C@H]([C@H](C)C[C@@H]2CC[C@@H](OC(=O)NCc3cnc(N4CCN(c5ncc(C(=O)NCCOCCOCCOCCOCCC(=O)N6CCc7cc(Cn8nc(-c9ccc%10oc(N)nc%10c9)c9c(N)ncnc98)ccc7C6)cn5)[C@@H](C(=O)O)C4)nc3)[C@H](OC)C2)CC(=O)[C@H](C)/C=C(\C)[C@@H](O)[C@@H](OC)C(=O)[C@H](C)C[C@H](C)/C=C/C=C/C=C/1C` [Example 105], the “pIC50 for Inhibition of mTORC1 and mTORC2 Substrate Phosphorylation p-P70S6K-(T389)” value in the experiment on P-P70S6K (T389) is reported as “+++ (≥9)”. Further, the “pIC50 for Inhibition of mTORC1 and mTORC2 Substrate Phosphorylation P-4E-BP1-(T37/46)” value in the experiment on P-4E-BP1 (T37/46) is “++ (8.5 > pIC50 ≥ 7.5)”. Further, in the experiment with P-Akt (S473), the “pIC50 for Inhibition of mTORC1 and mTORC2 Substrate Phosphorylation p-AKT1/2/3-(S473)” value is on record as “− (<6)”.
On to `CO[C@H]1C[C@@H]2CC[C@@H](C)[C@@](O)(O2)C(=O)C(=O)N2CCCC[C@H]2C(=O)O[C@H]([C@H](C)C[C@@H]2CC[C@@H](OC(=O)NCCOCCOCCOCCOCCOCCOCCOCCOCCC(=O)NCc3ccc(Cn4nc(-c5ccc6oc(N)nc6c5)c5c(N)ncnc54)cc3)[C@H](OC)C2)C[C@@H](O)[C@H](C)/C=C(\C)[C@@H](O)[C@@H](OC)C(=O)[C@H](C)C[C@H](C)/C=C/C=C/C=C/1C` [Example 36], for which the IC50 in the experiment with P-P70S6K (T389) is less than 1 nM; in the experiment with P-4E-BP1 (T37/46) it was less than 3.16 nM; in the experiment with P-Akt (S473), greater than 1000 nM.
